Measured values as given in patent US20250243171A1, “QUINAZOLINE COMPOUNDS FOR TREATMENT OF DISEASE” (Arthrosi Therapeutics, Inc., priority 2021, published 2025).

What was measured:
Test in all cases: EC50 assay: Ba/F3 stable cell proliferation (CCK-8, 72 h)
Assay type in all cases: cell-based
Ba/F3 stable cells [1] = target: T1, Ba/F3 stable cells (Homo sapiens, UniProt P00533, DUP767-769, cells depend on it); details: Ba/F3-EGFR V769-D770insASV cells
T1 construct: EC50 Ba/F3-EGFR V769-D770insASV; other: Ba/F3-EGFR V769-D770insASV cells, 72 h, CCK-8
T1 sequence (P00533 with tags, fused parts or gaps DUP767-769): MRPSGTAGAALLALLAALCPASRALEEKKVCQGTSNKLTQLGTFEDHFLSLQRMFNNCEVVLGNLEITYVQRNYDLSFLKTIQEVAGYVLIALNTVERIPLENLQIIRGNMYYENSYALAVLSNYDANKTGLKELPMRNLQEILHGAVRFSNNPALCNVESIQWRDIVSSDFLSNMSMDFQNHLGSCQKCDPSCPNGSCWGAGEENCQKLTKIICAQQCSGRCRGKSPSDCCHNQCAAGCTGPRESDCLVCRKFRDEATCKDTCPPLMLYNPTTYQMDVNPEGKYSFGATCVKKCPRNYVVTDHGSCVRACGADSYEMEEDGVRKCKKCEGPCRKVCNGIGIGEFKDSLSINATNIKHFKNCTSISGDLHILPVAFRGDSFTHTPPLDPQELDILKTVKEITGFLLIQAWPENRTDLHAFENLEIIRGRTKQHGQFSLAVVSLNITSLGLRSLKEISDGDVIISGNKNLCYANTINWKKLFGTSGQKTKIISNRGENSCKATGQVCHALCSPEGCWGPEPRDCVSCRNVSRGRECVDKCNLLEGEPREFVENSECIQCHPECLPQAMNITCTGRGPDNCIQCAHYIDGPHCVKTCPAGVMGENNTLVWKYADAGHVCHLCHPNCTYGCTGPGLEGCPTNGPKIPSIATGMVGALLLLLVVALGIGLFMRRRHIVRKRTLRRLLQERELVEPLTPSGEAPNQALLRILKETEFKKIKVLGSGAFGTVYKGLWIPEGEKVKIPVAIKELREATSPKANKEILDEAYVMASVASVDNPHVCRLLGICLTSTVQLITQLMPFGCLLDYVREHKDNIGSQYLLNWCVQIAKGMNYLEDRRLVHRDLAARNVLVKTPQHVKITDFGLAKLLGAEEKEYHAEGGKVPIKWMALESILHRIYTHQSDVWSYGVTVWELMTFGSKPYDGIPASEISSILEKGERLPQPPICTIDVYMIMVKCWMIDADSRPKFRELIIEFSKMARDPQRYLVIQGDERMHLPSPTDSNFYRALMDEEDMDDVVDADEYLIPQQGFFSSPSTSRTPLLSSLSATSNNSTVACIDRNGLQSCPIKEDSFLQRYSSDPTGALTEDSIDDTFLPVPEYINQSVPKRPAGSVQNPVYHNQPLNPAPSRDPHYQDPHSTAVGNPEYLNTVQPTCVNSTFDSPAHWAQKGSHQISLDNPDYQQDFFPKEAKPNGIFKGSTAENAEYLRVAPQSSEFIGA
Outline: (§1)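 Ba/F3 stable cells were seeded at 4,000 cells/90 μL/well in 96-well plates and held 2 h at 37° C. in 5% CO2, then given 10 μL of serially titrated compound (0.1% DMSO final). After 72 h at 37° C., CCK-8 reagent was added for 4 hours and absorbance read at 450 nm to derive EC50.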

Ba/F3 stable cells [2] = target: T2, Ba/F3 stable cells (Homo sapiens, UniProt P04626, DUP772-775, cells depend on it); details: Ba/F3-HER2 A775-G776insYVMA cells
T2 construct: EC50 Ba/F3-HER2 A775-G776insYVMA; other: Ba/F3-HER2 A775-G776insYVMA cells, 72 h, CCK-8
T2 sequence (P04626 with tags, fused parts or gaps DUP772-775): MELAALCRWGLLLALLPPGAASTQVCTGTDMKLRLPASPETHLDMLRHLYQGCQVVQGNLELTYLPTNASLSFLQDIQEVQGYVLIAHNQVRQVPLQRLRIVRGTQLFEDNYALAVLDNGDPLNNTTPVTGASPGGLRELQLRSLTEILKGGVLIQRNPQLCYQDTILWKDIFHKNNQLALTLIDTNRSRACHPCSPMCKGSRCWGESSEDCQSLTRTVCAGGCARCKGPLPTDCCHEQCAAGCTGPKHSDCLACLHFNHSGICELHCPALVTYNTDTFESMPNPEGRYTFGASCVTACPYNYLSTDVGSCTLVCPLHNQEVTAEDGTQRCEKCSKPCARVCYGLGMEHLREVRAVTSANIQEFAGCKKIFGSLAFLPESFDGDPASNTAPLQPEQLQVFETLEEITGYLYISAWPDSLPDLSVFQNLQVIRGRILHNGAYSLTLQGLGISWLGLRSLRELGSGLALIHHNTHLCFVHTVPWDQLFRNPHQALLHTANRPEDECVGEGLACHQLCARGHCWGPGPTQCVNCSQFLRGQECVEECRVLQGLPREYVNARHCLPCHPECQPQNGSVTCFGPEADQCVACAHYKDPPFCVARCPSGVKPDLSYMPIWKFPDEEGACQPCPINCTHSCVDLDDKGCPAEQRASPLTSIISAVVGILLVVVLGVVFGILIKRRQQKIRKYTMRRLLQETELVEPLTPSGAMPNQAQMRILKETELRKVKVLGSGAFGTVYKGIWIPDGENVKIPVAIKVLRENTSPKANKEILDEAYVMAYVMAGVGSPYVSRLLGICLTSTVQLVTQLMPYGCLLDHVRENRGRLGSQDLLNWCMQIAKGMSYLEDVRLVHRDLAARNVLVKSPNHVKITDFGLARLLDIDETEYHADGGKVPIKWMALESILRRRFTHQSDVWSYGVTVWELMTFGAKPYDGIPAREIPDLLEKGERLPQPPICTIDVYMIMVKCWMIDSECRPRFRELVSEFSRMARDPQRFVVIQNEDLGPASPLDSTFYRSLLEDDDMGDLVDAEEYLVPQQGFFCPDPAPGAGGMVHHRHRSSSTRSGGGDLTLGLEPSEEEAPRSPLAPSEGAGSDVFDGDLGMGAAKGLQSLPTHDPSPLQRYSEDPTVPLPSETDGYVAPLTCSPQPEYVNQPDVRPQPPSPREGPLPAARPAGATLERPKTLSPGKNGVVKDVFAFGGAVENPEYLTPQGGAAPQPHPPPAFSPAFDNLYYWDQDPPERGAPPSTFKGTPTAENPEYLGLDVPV
Outline: as §1

Ba/F3 stable cells [3] = target: T3, Ba/F3 stable cells (Homo sapiens, UniProt P00533, DUP771-773, cells depend on it); details: Ba/F3-EGFR H773-V774insNPH cells
T3 construct: EC50 Ba/F3-EGFR H773-V774insNPH; other: Ba/F3-EGFR H773-V774insNPH cells, 72 h, CCK-8
Outline: as §1

Ba/F3 stable cells [4] = target: T4, Ba/F3 stable cells (Homo sapiens, UniProt P00533, T790M/L858R, cells depend on it); details: Ba/F3-EGFR L858R-T790M cells
T4 construct: EC50 Ba/F3-EGFR L858R-T790M; other: Ba/F3-EGFR L858R-T790M cells, 72 h, CCK-8
T4 sequence (P00533 whole entry T790M/L858R): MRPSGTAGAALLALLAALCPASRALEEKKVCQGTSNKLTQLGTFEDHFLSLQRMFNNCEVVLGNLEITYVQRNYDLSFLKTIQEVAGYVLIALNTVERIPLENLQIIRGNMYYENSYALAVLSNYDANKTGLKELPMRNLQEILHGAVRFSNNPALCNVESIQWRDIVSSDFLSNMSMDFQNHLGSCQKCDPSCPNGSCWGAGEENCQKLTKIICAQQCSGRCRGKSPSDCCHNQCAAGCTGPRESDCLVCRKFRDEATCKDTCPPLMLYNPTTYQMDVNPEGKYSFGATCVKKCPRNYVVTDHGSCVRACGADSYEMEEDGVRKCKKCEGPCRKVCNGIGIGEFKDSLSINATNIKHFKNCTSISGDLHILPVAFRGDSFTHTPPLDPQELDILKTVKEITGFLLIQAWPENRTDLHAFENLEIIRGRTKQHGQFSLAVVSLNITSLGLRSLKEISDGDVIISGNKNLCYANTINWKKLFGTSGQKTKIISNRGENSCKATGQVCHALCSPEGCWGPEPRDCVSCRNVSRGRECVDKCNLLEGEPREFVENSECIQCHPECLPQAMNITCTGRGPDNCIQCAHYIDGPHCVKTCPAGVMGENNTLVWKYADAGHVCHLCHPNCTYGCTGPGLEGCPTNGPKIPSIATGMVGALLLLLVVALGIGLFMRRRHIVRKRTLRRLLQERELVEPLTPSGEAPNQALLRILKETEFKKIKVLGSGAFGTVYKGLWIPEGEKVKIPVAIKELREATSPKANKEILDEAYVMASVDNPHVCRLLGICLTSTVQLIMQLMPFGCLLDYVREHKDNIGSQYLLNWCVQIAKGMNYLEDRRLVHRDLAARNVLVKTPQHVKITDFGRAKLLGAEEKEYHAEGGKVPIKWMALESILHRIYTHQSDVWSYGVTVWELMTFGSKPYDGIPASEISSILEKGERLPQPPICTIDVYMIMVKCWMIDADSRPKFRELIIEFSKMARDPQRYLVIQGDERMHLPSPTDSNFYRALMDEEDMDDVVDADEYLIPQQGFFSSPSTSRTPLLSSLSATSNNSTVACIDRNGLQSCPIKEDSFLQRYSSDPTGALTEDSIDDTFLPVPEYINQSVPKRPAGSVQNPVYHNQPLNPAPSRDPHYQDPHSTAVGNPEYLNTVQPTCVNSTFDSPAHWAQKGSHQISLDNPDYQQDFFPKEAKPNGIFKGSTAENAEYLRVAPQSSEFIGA
Outline: as §1

Ba/F3 stable cells [5] = target: T5, Ba/F3 stable cells (Homo sapiens, UniProt P00533, INS763FQEA, cells depend on it); details: Ba/F3-EGFR A763-Y764insFQEA cells
T5 construct: EC50 Ba/F3-EGFR A763-Y764insFQEA; other: Ba/F3-EGFR A763-Y764insFQEA cells, 72 h, CCK-8
T5 sequence (P00533 with tags, fused parts or gaps INS763FQEA): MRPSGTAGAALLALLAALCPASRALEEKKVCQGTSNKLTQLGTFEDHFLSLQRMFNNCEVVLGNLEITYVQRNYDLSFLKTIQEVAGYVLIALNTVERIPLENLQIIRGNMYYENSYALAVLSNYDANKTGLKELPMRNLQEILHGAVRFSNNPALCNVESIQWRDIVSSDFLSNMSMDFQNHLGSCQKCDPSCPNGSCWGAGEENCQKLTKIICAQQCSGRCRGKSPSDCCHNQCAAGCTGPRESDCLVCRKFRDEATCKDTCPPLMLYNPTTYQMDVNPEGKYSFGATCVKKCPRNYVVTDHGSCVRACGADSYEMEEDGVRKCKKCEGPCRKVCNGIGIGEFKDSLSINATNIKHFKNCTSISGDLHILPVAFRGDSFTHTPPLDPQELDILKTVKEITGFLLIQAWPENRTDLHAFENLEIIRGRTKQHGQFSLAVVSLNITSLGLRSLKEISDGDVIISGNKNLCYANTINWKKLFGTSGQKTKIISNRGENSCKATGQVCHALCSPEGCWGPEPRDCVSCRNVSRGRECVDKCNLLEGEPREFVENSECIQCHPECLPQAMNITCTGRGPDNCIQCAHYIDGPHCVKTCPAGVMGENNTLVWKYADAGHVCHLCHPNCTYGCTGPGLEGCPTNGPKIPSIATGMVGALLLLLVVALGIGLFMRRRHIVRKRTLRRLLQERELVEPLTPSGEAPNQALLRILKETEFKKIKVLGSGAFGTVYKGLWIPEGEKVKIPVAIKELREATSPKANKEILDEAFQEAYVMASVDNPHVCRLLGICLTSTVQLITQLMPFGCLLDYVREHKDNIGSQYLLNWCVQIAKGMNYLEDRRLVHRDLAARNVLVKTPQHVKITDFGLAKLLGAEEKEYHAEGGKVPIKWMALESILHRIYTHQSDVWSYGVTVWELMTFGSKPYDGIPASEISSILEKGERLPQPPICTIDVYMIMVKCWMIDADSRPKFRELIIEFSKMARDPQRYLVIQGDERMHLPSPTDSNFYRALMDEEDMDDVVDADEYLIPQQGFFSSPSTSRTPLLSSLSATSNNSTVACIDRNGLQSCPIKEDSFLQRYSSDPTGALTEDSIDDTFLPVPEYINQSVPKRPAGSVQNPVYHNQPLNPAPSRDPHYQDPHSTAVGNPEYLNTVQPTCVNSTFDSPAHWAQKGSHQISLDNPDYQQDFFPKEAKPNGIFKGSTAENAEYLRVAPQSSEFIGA
Outline: as §1

Ba/F3 stable cells [6] = target: T6, Ba/F3 stable cells (Homo sapiens, UniProt P00533, DUP768-770, cells depend on it); details: Ba/F3-EGFR D770-N771insSVD cells
T6 construct: EC50 Ba/F3-EGFR D770-N771insSVD; other: Ba/F3-EGFR D770-N771insSVD cells, 72 h, CCK-8
Outline: as §1

SMILES	EC50 (Ba/F3 stable cells [1])	EC50 (Ba/F3 stable cells [2])	EC50 (Ba/F3 stable cells [3])	EC50 (Ba/F3 stable cells [4])	EC50 (Ba/F3 stable cells [5])	EC50 (Ba/F3 stable cells [6])
C#CC(=O)N1C2CCCC1CC(Oc1cc3c(Nc4ccc5ccccc5c4)ncnc3cc1OC)C2 (stereo not drawn) [Compound 58, 1-(3-((7-methoxy-4-(naphthalen-2-ylamino)quinazolin-6-yl)oxy)-9-azabicyclo[3.3.1]nonan-9-yl)prop-2-yn-1-one]	≤ 200 nM	≤ 200 nM	≤ 200 nM	≤ 200 nM	≤ 200 nM	200 to 1000 nM
C#CC(=O)N1C2CCC1CC(Oc1cc3c(Nc4ccc5ccccc5c4)ncnc3cc1OC)C2 (stereo not drawn) [Compound 59, 1-(3-((7-methoxy-4-(naphthalen-2-ylamino)quinazolin-6-yl)oxy)-8-azabicyclo[3.2.1]octan-8-yl)prop-2-yn-1-one]	≤ 200 nM	200 to 1000 nM	≤ 200 nM	≤ 200 nM	≤ 200 nM	200 to 1000 nM
C#CC(=O)N1C2CCC1CC(Oc1cc3c(Nc4cccc5ccccc45)ncnc3cc1OC)C2 (stereo not drawn) [Compound 60, 1-(3-((7-methoxy-4-(naphthalen-1-ylamino)quinazolin-6-yl)oxy)-8-azabicyclo[3.2.1]octan-8-yl)prop-2-yn-1-one]	≤ 200 nM	200 to 1000 nM	≤ 200 nM	≤ 200 nM	≤ 200 nM	200 to 1000 nM
C#CC(=O)N1CCCC(c2ccc3ncnc(Nc4ccc(Cl)c(Cl)c4F)c3c2)C1 (stereo not drawn) [Compound 61, 1-(3-(4-((3,4-dichloro-2-fluorophenyl)amino)quinazolin-6-yl)piperidin-1-yl)prop-2-yn-1-one]	≤ 200 nM	200 to 1000 nM	≤ 200 nM	≤ 200 nM	≤ 200 nM	≤ 200 nM
C#CC(=O)N1CCC=C(c2ccc3ncnc(Nc4ccc(Cl)c(Cl)c4F)c3c2)C1 [Compound 62, 1-(5-(4-((3,4-dichloro-2-fluorophenyl)amino)quinazolin-6-yl)-3,6-dihydropyridin-1(2H)-yl)prop-2-yn-1-one]	200 to 1000 nM	200 to 1000 nM	200 to 1000 nM	200 to 1000 nM	≤ 200 nM	200 to 1000 nM
C#CC(=O)N1CCC=C(c2cc3c(Nc4ccc(Cl)c(Cl)c4F)ncnc3cc2OC)C1 [Compound 63, 1-(5-(4-((3,4-dichloro-2-fluorophenyl)amino)-7-methoxyquinazolin-6-yl)-3,6-dihydropyridin-1(2H)-yl)prop-2-yn-1-one]	≤ 200 nM	200 to 1000 nM	≤ 200 nM	≤ 200 nM	≤ 200 nM	≤ 200 nM
C=CC(=O)N[C@H]1C[C@@H](Oc2cc3c(Nc4ccc(Cl)c(Cl)c4F)ncnc3cc2OC)C1 [Compound 66, N-((1s,3s)-3-((4-((3,4-dichloro-2-fluorophenyl)amino)-7-methoxyquinazolin-6-yl)oxy)cyclobutyl)acrylamide]	≤ 200 nM	≤ 200 nM	≤ 200 nM	≤ 200 nM	≤ 200 nM	200 to 1000 nM
C=CC(=O)NC1CC(Oc2cc3c(Nc4ccc(C)c5c4CCC5)ncnc3cc2OC)C1 (stereo not drawn) [Compound 67, N-(3-((7-methoxy-4-((7-methyl-2,3-dihydro-1H-inden-4-yl)amino)quinazolin-6-yl)oxy)cyclobutyl)acrylamide]	> 1000 nM	> 1000 nM	> 1000 nM	> 1000 nM	200 to 1000 nM	> 1000 nM
C=CC(=O)NC1CC(Oc2cc3c(Nc4ccc(F)c5c4CCC5=O)ncnc3cc2OC)C1 (stereo not drawn) [Compound 68, N-(3-((4-((7-fluoro-1-oxo-2,3-dihydro-1H-inden-4-yl)amino)-7-methoxyquinazolin-6-yl)oxy)cyclobutyl)acrylamide]	> 1000 nM	> 1000 nM	> 1000 nM	> 1000 nM	> 1000 nM	> 1000 nM
C=CC(=O)NC1CC(Oc2cc3c(Nc4ccc(F)c5c4CCC5O)ncnc3cc2OC)C1 (stereo not drawn) [Compound 69, N-(3-((4-((7-fluoro-1-hydroxy-2,3-dihydro-1H-inden-4-yl)amino)-7-methoxyquinazolin-6-yl)oxy)cyclobutyl)acrylamide]	> 1000 nM	> 1000 nM	> 1000 nM	> 1000 nM	> 1000 nM	> 1000 nM
C=CC(=O)NC1CC(Oc2cc3c(Nc4ccc5c(c4)CCCC5=O)ncnc3cc2OC)C1 (stereo not drawn) [Compound 70, N-(3-((7-methoxy-4-((5-oxo-5,6,7,8-tetrahydronaphthalen-2-yl)amino)quinazolin-6-yl)oxy)cyclobutyl)acrylamide]	> 1000 nM	> 1000 nM	> 1000 nM	> 1000 nM	> 1000 nM	> 1000 nM
C=CC(=O)NC1CC(Oc2cc3c(Nc4ccc5c(c4)CCCC5O)ncnc3cc2OC)C1 (stereo not drawn) [Compound 71, N-(3-((4-((5-hydroxy-5,6,7,8-tetrahydronaphthalen-2-yl)amino)-7-methoxyquinazolin-6-yl)oxy)cyclobutyl)acrylamide]	> 1000 nM	> 1000 nM	> 1000 nM	> 1000 nM	> 1000 nM	> 1000 nM
C=CC(=O)N(C)C1CC(Oc2cc3c(Nc4ccc(Cl)c(Cl)c4F)ncnc3cc2OC)C1 (stereo not drawn) [Compound 72, N-(3-((4-((3,4-dichloro-2-fluorophenyl)amino)-7-methoxyquinazolin-6-yl)oxy)cyclobutyl)-N-methylacrylamide]	≤ 200 nM	200 to 1000 nM	≤ 200 nM	200 to 1000 nM	≤ 200 nM	≤ 200 nM
C=CC(=O)NC1CC(Oc2cc3c(Nc4ccc(Cl)c(Cl)c4)ncnc3cc2OC)C1 (stereo not drawn) [Compound 73, N-(3-((4-((3,4-dichlorophenyl)amino)-7-methoxyquinazolin-6-yl)oxy)cyclobutyl)acrylamide]	≤ 200 nM	200 to 1000 nM	200 to 1000 nM	> 1000 nM	≤ 200 nM	200 to 1000 nM

Continued, values first:

EC50 (Ba/F3 stable cells [1])	EC50 (Ba/F3 stable cells [2])	EC50 (Ba/F3 stable cells [3])	EC50 (Ba/F3 stable cells [4])	EC50 (Ba/F3 stable cells [5])	EC50 (Ba/F3 stable cells [6])	SMILES
≤ 200 nM	200 to 1000 nM	200 to 1000 nM	> 1000 nM	≤ 200 nM	> 1000 nM	C=C(F)C(=O)N1CCC(Oc2cc3c(Nc4ccc(Cl)c(Cl)c4F)ncnc3cc2OC)CC1 [Compound 50, 1-(4-((4-((3,4-dichloro-2-fluorophenyl)amino)-7-methoxyquinazolin-6-yl)oxy)piperidin-1-yl)-2-fluoroprop-2-en-1-one]
≤ 200 nM	200 to 1000 nM	≤ 200 nM	≤ 200 nM	≤ 200 nM	≤ 200 nM	C#CC(=O)N1CCC(Oc2cc3c(Nc4ccc(Cl)c(Cl)c4F)ncnc3cc2OC)CC1 [Compound 52, 1-(4-((4-((3,4-dichloro-2-fluorophenyl)amino)-7-methoxyquinazolin-6-yl)oxy)piperidin-1-yl)prop-2-yn-1-one]
≤ 200 nM	≤ 200 nM	≤ 200 nM	≤ 200 nM	≤ 200 nM	≤ 200 nM	C#CC(=O)N1CCC(Oc2cc3c(Nc4ccc5ccccc5c4)ncnc3cc2OC)CC1 [Compound 53, 1-(4-((7-methoxy-4-(naphthalen-2-ylamino)quinazolin-6-yl)oxy)piperidin-1-yl)prop-2-yn-1-one]
≤ 200 nM	≤ 200 nM	≤ 200 nM	≤ 200 nM	≤ 200 nM	≤ 200 nM	C#CC(=O)N1CCC(Oc2cc3c(Nc4cccc5ccccc45)ncnc3cc2OC)CC1 [Compound 54, 1-(4-((7-methoxy-4-(naphthalen-1-ylamino)quinazolin-6-yl)oxy)piperidin-1-yl)prop-2-yn-1-one]
≤ 200 nM	200 to 1000 nM	≤ 200 nM	200 to 1000 nM	≤ 200 nM	200 to 1000 nM	C#CC(=O)N1C2CCC1CC(Oc1cc3c(Nc4cccc5c4CCC5)ncnc3cc1OC)C2 (stereo not drawn) [Compound 56, 1-(3-((4-((2,3-dihydro-1H-inden-4-yl)amino)-7-methoxyquinazolin-6-yl)oxy)-8-azabicyclo[3.2.1]octan-8-yl)prop-2-yn-1-one]
≤ 200 nM	≤ 200 nM	≤ 200 nM	≤ 200 nM	≤ 200 nM	≤ 200 nM	C#CC(=O)N1C2CCCC1CC(Oc1cc3c(Nc4cccc5ccccc45)ncnc3cc1OC)C2 (stereo not drawn) [Compound 57, 1-(3-((7-methoxy-4-(naphthalen-1-ylamino)quinazolin-6-yl)oxy)-9-azabicyclo[3.3.1]nonan-9-yl)prop-2-yn-1-one]
